Measured values: ChEMBL document CHEMBL5608212, “N-acylbenzimidazoles as selective Acylators of the catalytic cystein of the coronavirus 3CL protease” (Eur J Med Chem, 2024)

Assays:
[1] = target: Replicase polyprotein 1ab (Severe acute respiratory syndrome coronavirus 2, UniProt P0DTD1); experiment: Inhibition of SARS-CoV-2 3CLpro using Dabcyl-KTSAVLQSGFRKM-Glu(Edans) as substrate preincubated for 1 hrs in presence of 2 mM GSH followed by substrate addition and measured after 30 mins by FRET assay; settings: for IC50: read-out: IC50
[2] = target: Replicase polyprotein 1ab (Severe acute respiratory syndrome coronavirus 2) (UniProt P0DTD1); experiment: Inhibition of SARS-CoV-2 3CLpro using Dabcyl-KTSAVLQSGFRKM-Glu(Edans) as substrate at 100 uM preincubated for 1 hrs in presence of 2 mM GSH followed by substrate addition and measured after 30 mins by FRET assay relative to control; settings: time 1.5 hrs
[3] = Inhibition of MERS-CoV 3CLpro using Dabcyl-KTSAVLQSGFRKM-Glu(Edans) as substrate preincubated 1 hr in presence of 2 mM GSH followed by substrate addition and measured after 30 mins by FRET assay; design: species or system Middle East respiratory syndrome-related coronavirus
[4] = Inhibition of C-terminal 6-His tagged recombinant SARS-CoV 3CLpro (Ser1 to Gln306 residues) extracted from Escherichia coli using Dabcyl-KTSAVLQSGFRKM-Glu(Edans) as substrate preincubated 1 hr in presence of 2 mM GSH followed by substrate addition and measured after 30 mins by FRET assay; design: species or system Severe acute respiratory syndrome-related coronavirus
Human coronavirus 229E = experiment: Antiviral activity against HCoV-229E expressing renilla luciferase reporter gene infected in human Huh-7 cells pre-infected […] for 1 hr followed by compound addition and measured after 6 hrs by luciferase based assay; assay type: functional, organism-based
[5] = target: Replicase polyprotein 1ab (Human coronavirus 229E, UniProt P0C6X1); experiment: Inhibition of hCoV-229E 3CLpro using Dabcyl-KTSAVLQSGFRKM-Glu(Edans) as substrate preincubated 1 hr in presence of 2 mM GSH followed by substrate addition and measured after 30 mins by FRET assay
Replicase polyprotein 1ab (Human coronavirus 229E, UniProt P0C6X1), sequence (P0C6X1 2966-3267 limits assumed): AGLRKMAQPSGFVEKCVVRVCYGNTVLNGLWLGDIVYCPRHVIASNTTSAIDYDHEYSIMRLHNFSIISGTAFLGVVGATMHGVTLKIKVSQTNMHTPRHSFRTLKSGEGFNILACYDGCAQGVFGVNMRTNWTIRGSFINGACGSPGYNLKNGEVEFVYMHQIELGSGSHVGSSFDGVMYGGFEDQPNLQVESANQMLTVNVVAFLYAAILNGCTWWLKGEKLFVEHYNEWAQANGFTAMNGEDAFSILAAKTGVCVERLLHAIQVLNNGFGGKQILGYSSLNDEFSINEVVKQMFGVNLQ

[6] = target: T1, Calpain-1 catalytic subunit (Homo sapiens, UniProt P07384); experiment: Inhibition of human calpain 1 using (DABCYL)-TPLKSPPPSPR-(EDANS) as substrate incubated for 30 mins in presence of calcium ions and GSH and measured after 30 mins by fluorescence based assay
T1 sequence (P07384 whole entry): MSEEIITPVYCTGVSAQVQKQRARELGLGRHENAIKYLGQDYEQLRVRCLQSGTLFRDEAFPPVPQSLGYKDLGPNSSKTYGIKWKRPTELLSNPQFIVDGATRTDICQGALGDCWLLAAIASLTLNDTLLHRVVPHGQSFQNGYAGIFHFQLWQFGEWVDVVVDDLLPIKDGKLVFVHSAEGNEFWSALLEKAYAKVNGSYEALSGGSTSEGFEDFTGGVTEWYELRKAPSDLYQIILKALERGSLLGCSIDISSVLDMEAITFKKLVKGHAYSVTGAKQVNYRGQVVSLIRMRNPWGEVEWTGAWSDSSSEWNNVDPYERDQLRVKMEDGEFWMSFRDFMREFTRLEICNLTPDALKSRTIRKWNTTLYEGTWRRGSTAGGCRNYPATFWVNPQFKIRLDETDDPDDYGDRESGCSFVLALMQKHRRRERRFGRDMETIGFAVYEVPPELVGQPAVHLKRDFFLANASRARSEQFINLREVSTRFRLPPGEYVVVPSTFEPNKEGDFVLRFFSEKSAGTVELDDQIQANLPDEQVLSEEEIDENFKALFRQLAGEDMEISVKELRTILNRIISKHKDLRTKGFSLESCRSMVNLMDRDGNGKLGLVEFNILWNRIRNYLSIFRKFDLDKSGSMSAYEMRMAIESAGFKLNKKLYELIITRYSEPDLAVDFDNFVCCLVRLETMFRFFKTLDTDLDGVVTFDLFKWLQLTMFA

[7] = Inhibition of human cathepsin 1 using QXL520/HiLyteFlour 488 as substrate preincubated for 60 mins and measured after 30 mins by fluorescence based assay

Row | Compound | IC50 [1] | further results
1 | CSc1nc2ccccc2n1C(=O)Oc1ccccc1 | > 100000 nM | pIC50 [1]: < 4
2 | CSc1nc2ccccc2n1C(=O)C1CC1 |  | inhibition [2]: 61%
3 | CSc1nc2ccccc2n1C(=O)c1ccc(Cl)cc1 | 1100 nM | 
4 | CSc1nc2cc(C#N)ccc2n1C(=O)c1ccc(C)c(F)c1 | 890 nM | 
5 | Cc1ccc(C(=O)n2c(C#N)nc3ccccc32)cc1 | > 100000 nM | pIC50 [1]: < 4
6 | CCc1ccc(C(=O)n2c(SC)nc3ccccc32)cc1 | 1800 nM | 
7 | Cc1ccc(C(=O)n2c(-c3ccccc3)nc3ccccc32)cc1 | > 100000 nM | pIC50 [1]: < 4
8 | CSc1nc2cc(F)ccc2n1C(=O)c1ccc(C)c(F)c1 | 100 nM | 
9 | CSc1nc2ccc(F)cc2n1C(=O)c1ccc(C)c(F)c1 | 260 nM | 
10 | CSc1nc2ccc(F)cc2n1C(=O)c1ccc(C)cc1 | 200 nM | 
11 | CCSc1nc2ccccc2n1C(=O)c1ccc(C)cc1 | 3760 nM | 
12 | Cc1ccc(C(=O)n2c(CC#N)nc3ccccc32)cc1 |  | inhibition [2]: 68%
13 | CSc1nc2ccccc2n1C(=O)c1ccc(C(C)(C)C)cc1 | > 100000 nM | pIC50 [1]: < 4
14 | CCc1nc2ccccc2n1C(=O)c1ccc(C)cc1 | 6550 nM | 
15 | CSc1nc2ccccc2n1C(=O)c1cccc(C(F)(F)F)c1 | 33700 nM | 
16 | COc1ccc(C(=O)n2c(SC)nc3ccccc32)cc1 | 3000 nM | 
17 | CSc1nc2cc3c(cc2n1C(=O)c1ccc(C)c(F)c1)OCO3 | 70 nM | IC50 [3]: 2900 nM; pIC50 [3]: 5.53; pIC50 [4]: 6.49; EC50 (Human coronavirus 229E): 29200 nM; IC50 [5]: 320 nM
18 | CSc1nc2ccccc2n1C(=O)c1ccc(C)c(Cl)c1 | 150 nM | 
19 | CSc1nc2ccccc2n1C(=O)c1ccc(C)c(C)c1 | 1000 nM | 
20 | CSc1nc2cc(Cl)ccc2n1C(=O)c1ccc(C)cc1 | 550 nM | 
21 | C=CCSc1nc2ccccc2n1C(=O)c1ccc(C)cc1 | 5440 nM | 
22 | CSc1nc2cc(F)ccc2n1C(=O)c1ccc(C)cc1 | 270 nM | 
23 | Cc1ccc(C(=O)n2c(N)nc3ccccc32)cc1 | > 100000 nM | pIC50 [1]: < 4
24 | CSc1nc2cc3c(cc2n1C(=O)c1ccc(C)c(F)c1)OCCO3 | 270 nM | 
25 | CSc1nc2ccccc2n1C(=O)c1cccc(C)c1 | 2100 nM | 
26 | CSc1nc2ccccc2n1C(=O)c1ccncc1 | > 100000 nM | pIC50 [1]: < 4
27 | Cc1ccc(C(=O)n2nnc3ccccc32)cc1 | > 100000 nM | pIC50 [1]: < 4
28 | CSc1nc2ccccc2n1C(=O)c1ccc(C)c(F)c1 | 90 nM | IC50 [3]: 1300 nM; pIC50 [3]: 5.89; IC50 [6]: > 100000 nM; IC50 [4]: 340 nM; pIC50 [4]: 6.47; EC50 (Human coronavirus 229E): 35600 nM; IC50 [7]: > 100000 nM; IC50 [5]: 350 nM
29 | Cc1ccc(C(=O)n2c(C)nc3ccccc32)cc1 | 3430 nM | 
30 | CSc1nc2ccc(C#N)cc2n1C(=O)c1ccc(C)c(F)c1 | 6300 nM | 
